Assay results as given in patent publication US20260242759A1, “GQ/11 Protein Peptidomimetics” (Vrije Universiteit Brussel, priority 2022, published 2026).
Positions of bridges follow the written chain, without caps; N, C: chain ends. Non-standard residues stand in square brackets, D forms with d. Residues, ends and D or L forms follow the SMILES beside them. Triazole bridges read from a SMILES are 1,4-linked. Lys(N3) = [N-]=[N+]=NCCCC[C@H](N)C(=O)O; Cha = N[C@@H](CC1CCCCC1)C(=O)O; Pra = C#CC[C@H](N)C(=O)O

How the values were obtained:
[1] = target: T1, human muscarinic 1 receptor (M1R) (Homo sapiens, UniProt P11229); assay: Radioligand binding assay (RLA) on M1R membrane extracts; conditions: for Shift: IC50 of agonist without mimetic divided by IC50 with mimetic, averaged value; for increase of agonist affinity / stabilization of the receptor: acetylcholine chloride, mimetic at 100 μM
T1 construct: The M1R constructs used in this assay consisted of the full-length human muscarinic 1 receptor; FLAG (N); expressed in transfected cells; membrane extracts
T1 sequence (P11229 1-460): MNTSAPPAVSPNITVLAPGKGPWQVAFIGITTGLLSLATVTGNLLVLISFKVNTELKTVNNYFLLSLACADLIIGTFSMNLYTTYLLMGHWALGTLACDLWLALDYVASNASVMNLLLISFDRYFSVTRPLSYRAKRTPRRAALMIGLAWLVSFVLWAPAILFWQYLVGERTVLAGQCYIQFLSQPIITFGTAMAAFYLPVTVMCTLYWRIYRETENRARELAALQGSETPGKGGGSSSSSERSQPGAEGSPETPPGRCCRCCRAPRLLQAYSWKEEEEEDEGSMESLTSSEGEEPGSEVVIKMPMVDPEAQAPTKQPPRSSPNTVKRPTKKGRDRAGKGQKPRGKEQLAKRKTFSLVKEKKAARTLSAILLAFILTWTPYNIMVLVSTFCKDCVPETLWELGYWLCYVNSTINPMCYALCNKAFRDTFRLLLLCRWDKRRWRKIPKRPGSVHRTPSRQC
Text: A radioligand displacement assay can quantify the pharmacological stabilization of the GPCR in the active conformation by comparing the affinities of an agonist for the basal versus the active GPCR conformer. In particular, stabilization of a GPCR in an active conformational state or specific binding to a GPCR in an active conformational state by a G protein peptidomimetic or a Gq/11 protein peptidomimetic as disclosed herein can be determined based on the shift in IC50 value of a ligand, in particular an agonist more particularly an orthosteric agonist, which binds to the GPCR when tested in the presence and the absence of the G protein peptidomimetic or the Gq/11 protein peptidomimetic. During the assay, the binding affinity of an orthosteric agonist for the receptor in presence and absence of the (allosteric) peptidomimetic is determined. Therefore, the GPCR, e.g. embedded in membrane extracts, is incubated with a radioligand and different concentrations of the agonist. By increasing the agonist concentration, radioligand will be displaced by the agonist. A leftward shift of the curve in the presence of the peptidomimetic is indicative of a peptidomimetic capable of stabilizing a GPCR in an active conformational state. A “shift” in IC50 value or IC50 shift is defined herein as the IC50 ratio of a ligand, in particular an agonist, more particularly an orthosteric agonist, which binds to the GPCR in the absence of a G protein peptidomimetic or a Gq/11 protein peptidomimetic relative to the presence of the G protein peptidomimetic or the Gq/11 protein peptidomimetic, or the IC50 value of a ligand, in particular an agonist, for binding to the GPCR in the absence of a G protein peptidomimetic or a Gq/11 protein peptidomimetic divided by the IC50 value of the ligand in the presence of the G protein peptidomimetic or the Gq/11 protein peptidomimetic in the same preparation, wherein said IC50 values are determined in a radioligand binding assay or radioligand displacement assay (RLA) as known to the skilled person. For example, a human muscarinic acetylcholine 1 receptor (M1R) radioligand binding assay using ^3H—N-methyl scopolamine (^3H-NMS) as the radioligand and increasing concentrations of acetylcholine chloride (agonist) as cold competitor may be used.
The membrane extracts were prepared from cells that overexpressed muscarinic acetylcholine 1 receptor (M1R), by resuspending the cell pellet in a buffer (1 ml buffer/2×1E7 cells) containing 20 mM Hepes (pH 7.4), 100 mM NaCl, Leupeptin and phenylmethylsulfonyl fluoride (PMSF). Afterwards the cells were vortexed and homogenized in ice using a small volume ULTRA-TURRAX® (6×10 sec). The cells were then centrifuged for 15 min at 16000 rcf, in a pre-cooled centrifuge (4° C.) and resuspended in the previous buffer containing 10% sucrose. Finally, the membranes were again homogenized in ice with the small volume ULTRA-TURRAX® (3×10 sec). The protein concentration in the membrane extracts was determined using a Pierce™ bicinchoninic acidv (BCA) Protein Assay Kit and the protein concentration was extrapolated from the Bovine Serum Albumine standard curve.
The M1R constructs used in this assay consisted of the full-length human muscarinic 1 receptor with a FLAG tag at the N-terminus. A buffer containing 20 mM Hepes pH 7.4, 100 mM NaCl, and 0.1% BSA was used for the ligands, membrane extracts and peptides (+1% dimethylsulfoxide (DMSO)). The competition assay was performed with [3H]—N-methyl scopolamine ([3H]-NMS) as radiolabeled antagonist, at a final concentration of 0.6 nM. A ten-fold dilution series of the agonist, acetylcholine chloride, was prepared to obtain a dose response curve. After incubation, the samples were harvested into filter plates (GF/C) and washed with ice cold washing buffer (20 mM Hepes pH 7.4) using the 96-well harvester. […]

[2] = target: T2, human ghrelin receptor (GHSR) (Homo sapiens, UniProt Q92847, C146S/C304S); assay: Bimane fluorescence assay on purified ghrelin receptor in nanodiscs; format: biochemical; conditions: bimane labeled GHSR; for maximum emission wavelength of bimane: in presence of full agonist JMV1843 (20 μM); for conformational change in the receptor: in presence of JMV1843
T2 construct: integrin α5 fragment (N); polyhistidine tag (C); made in house; host or cells: E. coli BL21(DE3)
T2 sequence (Q92847 whole entry C146S/C304S, the tested form may be a part): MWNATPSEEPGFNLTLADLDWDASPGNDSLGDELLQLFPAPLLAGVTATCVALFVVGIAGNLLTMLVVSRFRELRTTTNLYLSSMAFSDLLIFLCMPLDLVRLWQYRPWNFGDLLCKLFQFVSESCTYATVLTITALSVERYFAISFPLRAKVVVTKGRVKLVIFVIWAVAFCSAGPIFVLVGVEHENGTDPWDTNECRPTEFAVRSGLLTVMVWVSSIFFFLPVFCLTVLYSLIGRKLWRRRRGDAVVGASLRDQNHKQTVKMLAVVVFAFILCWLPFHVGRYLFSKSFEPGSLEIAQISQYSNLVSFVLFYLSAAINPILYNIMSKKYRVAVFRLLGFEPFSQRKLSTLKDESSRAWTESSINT
Text: Another assay that can be used to analyse conformational changes associated with GPCR activation and/or to identify G protein peptidomimetics that are capable of stabilizing a GPCR in an active conformational state is the bimane fluorescence assay or bimane assay. This assay works through labelling of a cysteine residue in the lower part of the TM6 of a GPCR with a bimane-fluorophore (monobromobimane (MB)). Binding of an agonist to the GPCR causes a conformational change and outward movement of TM6 that places bimane in a more solved-exposed position, which will alter its maximum emission wavelength. In particular, increasing concentrations of agonist result in a concentration-dependent red-shift of the maximum emission wavelength (λmax) of the bimane-fluorophore probe. In the presence of a G protein or an active state stabilizing G protein peptidomimetic λmax may increase further. For example, a bimane labelled ghrelin receptor (such as a cysmin mutant (i.e. mutant with minimal cysteines) of human ghrelin receptor (also referred to herein as growth hormone secretagogue receptor (GHSR) (e.g. the mutant as described in Damian et al. (2021) wherein monobromobimane (MB) fluorescent probe is attached to Cys^255) and ghrelin receptor agonist JMV1843 may be used.
The bimane fluorescence assays on the ghrelin receptor were performed as described in Damian et al. (2021. Nat. Commun. 12:1-15). Briefly, E. coli bacteria (BL21(DE3)) were transformed with a vector encoding the human ghrelin receptor with an integrin α5 fragment at the N-terminus and a polyhistidine tag at the C-terminus. The receptors were then purified and reconstituted into lipidated nanodiscs. The monobromobimane labeling was performed by incubating the receptors, with a unique reactive cysteine at position 255, during 16 h in the dark at 4° C. and in the presence of 0.1 mM tris(2-carboxyethyl)phosphine (TCEO). The reaction was terminated with 5 mM L-cysteine and unreacted monobromobimane was removed using a Zeba™ Spin desalting column.
For the fluorescence assay, the labeled receptor was incubated during 2 h at 20° C. (0.2 μM final concentration), in the absence or presence of the full agonist JMV1843 (20 μM) and in the absence or presence of either the peptidomimetics at varying molar ratios or the purified Gαqβ1γ2 heterotrimer, at a 1:5 receptor-to-G protein molar ratio. Afterwards, the fluorescence experiments were performed on a Horiba Fluoromax-4 TCSP spectrofluorimeter. For each scan, the excitation wavelength (λexc) was set at 380 nm and emission was collected between 440 nm and 520 nm.
The bimane assay is used on GPCRs to detect conformational changes associated with receptor activation. This assay functions through the labelling of a cysteine, which is one of the least frequently occurring amino acids in proteins. Additionally, the majority of the extracellular cysteines form disulfide bonds, which, together with the transmembrane cysteines, are inert to thiol-reactive reagents. Additionally, some of the intracellular cysteines in the C-terminal tail may carry post-translational modifications which reduces the number of reactive cysteines in the receptor (Tian et al. 2017. Chem. Rev. 117:186-245). For GHSR, the remaining reactive cysteine residues C146 (ICL2) and C304 (extracellular end of TM7) were replaced by serines (cysmin mutant, i.e. mutant with minimal cysteines), to allow the monobromobimane (MB) fluorescent probe to be specifically attached to Cys255 in the lower part of TM6 (FIG. 5a) (Damian et al. 2021). In this assay, bimane is chosen because of its small size and sensitivity to the polarity of its environment (Yao et al. 2006. Nat Chem. Biol. 2:417-422). Binding of a ligand to the receptor, causes a conformational change and outward movement of TM6 that places bimane in a more solvent-exposed position, which alters its maximum emission wavelength. […]

| Compound | Shift [1] | increase of agonist affinity / stabilization of the receptor [1] | maximum emission wavelength of bimane [2] [nm] | conformational change in the receptor [2] |
| --- | --- | --- | --- | --- |
| CC[C@H](C)[C@H](NC(=O)[C@@H]1CCCCn2cc(nn2)C[C@H](NC(=O)[C@H](CC(N)=O)NC(=O)[C@H](Cc2ccccc2)NC(=O)[C@H](CCCCN)NC(=O)[C@H](CCCCN)NC(=O)[C@H](CCCCN)NC(C)=O)C(=O)N[C@@H](CS)C(=O)N[C@@H](CCCCN)C(=O)N[C@@H](CC(=O)O)C(=O)N1)C(=O)N[C@@H](CC(C)C)C(=O)N[C@@H](CCC(N)=O)C(=O)N[C@@H](CCSC)C(=O)N[C@@H](CC(N)=O)C(=O)N[C@@H](CC(C)C)C(=O)N[C@@H](CCCNC(=N)N)C(=O)N[C@@H](CCC(=O)O)C(=O)N[C@@H](Cc1ccc(O)cc1)C(=O)N[C@@H](CC(N)=O)C(=O)N[C@@H](CC1CCCCC1)C(=O)N[C@H](C(=O)O)C(C)C [SBL-GQ-12] (Ac-KKKFN[Pra]CKD[Lys(N3)]ILQMNLREYN[Cha]V-OH; triazole 6-10) | 34 | more significant and promising stabilization of the receptor | ~478 |  |
| CC[C@H](C)[C@H](NC(=O)[C@H](CC(=O)O)NC(=O)[C@H](CCCCN)NC(=O)[C@H](CS)NC(=O)[C@H](CC(=O)O)NC(=O)[C@H](CC(N)=O)NC(=O)[C@H](Cc1ccccc1)NC(=O)[C@H](CCCCN)NC(=O)[C@H](CCCCN)NC(=O)[C@H](CCCCN)NC(C)=O)C(=O)N[C@H](C(=O)N[C@@H](CC(C)C)C(=O)N[C@@H](CCC(N)=O)C(=O)N[C@@H](CCSC)C(=O)N[C@@H](CC(N)=O)C(=O)N[C@@H](CC(C)C)C(=O)N[C@@H](CCCNC(=N)N)C(=O)N[C@@H](CCC(=O)O)C(=O)N[C@@H](Cc1ccc(O)cc1)C(=O)N[C@@H](CC(N)=O)C(=O)N[C@@H](CC1CCCCC1)C(=O)N[C@H](C(=O)O)C(C)C)[C@@H](C)CC [SBL-GQ-10] (Ac-KKKFNDCKDIILQMNLREYN[Cha]V-OH) | 2 |  |  | not able to induce a conformational change |
| Ac-KKKFNDCKDIILQMNLREYNLV-OH [SBL-GQ-08] | 2 |  |  | not able to induce a conformational change |
| CC[C@H](C)[C@H](NC(=O)[C@@H]1CCCCn2cc(nn2)C[C@H](NC(=O)[C@H](CC(N)=O)NC(=O)[C@H](Cc2ccccc2)NC(=O)[C@H](CCCCN)NC(=O)[C@H](CCCCN)NC(=O)[C@H](CCCCN)NC(C)=O)C(=O)N[C@@H](CS)C(=O)N[C@@H](CCCCN)C(=O)N[C@@H](CC(=O)O)C(=O)N1)C(=O)N[C@@H](CC(C)C)C(=O)N[C@@H](CCC(N)=O)C(=O)N[C@@H](CCSC)C(=O)N[C@@H](CC(N)=O)C(=O)N[C@@H](CC(C)C)C(=O)N[C@@H](CCCNC(=N)N)C(=O)N[C@@H](CCC(=O)O)C(=O)N[C@@H](Cc1ccc(O)cc1)C(=O)N[C@@H](CC(N)=O)C(=O)N[C@@H](CC(C)C)C(=O)N[C@H](C(=O)O)C(C)C [SBL-GQ-11] (Ac-KKKFN[Pra]CKD[Lys(N3)]ILQMNLREYNLV-OH; triazole 6-10) | 7 | slight increase in agonist affinity | ~478 |  |
| Ac-KKKFAAVKDTILQLNLKEYNLV-OH [SBL-GQ-02] | 2 |  |  | not able to induce a conformational change |
| CC[C@H](C)[C@H](NC(=O)[C@@H]1CCCCn2cc(nn2)C[C@H](NC(=O)[C@H](C)NC(=O)[C@H](Cc2ccccc2)NC(=O)[C@H](CCCCN)NC(=O)[C@H](CCCCN)NC(=O)[C@H](CCCCN)NC(C)=O)C(=O)N[C@@H](C(C)C)C(=O)N[C@@H](CCCCN)C(=O)N[C@@H](CC(=O)O)C(=O)N1)C(=O)N[C@@H](CC(C)C)C(=O)N[C@@H](CCC(N)=O)C(=O)N[C@@H](CC(C)C)C(=O)N[C@@H](CC(N)=O)C(=O)N[C@@H](CC(C)C)C(=O)N[C@@H](CCCCN)C(=O)N[C@@H](CCC(=O)O)C(=O)N[C@@H](Cc1ccc(O)cc1)C(=O)N[C@@H](CC(N)=O)C(=O)N[C@@H](CC1CCCCC1)C(=O)N[C@H](C(=O)O)C(C)C [SBL-GQ-06] (Ac-KKKFA[Pra]VKD[Lys(N3)]ILQLNLKEYN[Cha]V-OH; triazole 6-10) | 8 | slight increase in agonist affinity | ~478 |  |
